Source: patent publication US10300042B2, “Apremilast for the treatment of a liver disease or a liver function abnormality” (Celgene Corporation, priority 2014, dated 2019)

Key:
[1] = system: PDE1; assay: PDE1 enzyme assay; assay type: biochemical; conditions: at 10 μM
Description: (§1) PDE1, 2, 3 and 5 enzyme assays were prepared as described by Hidaka and Asano. Biochem. Biophys. Acta., 1976, 429:485; see also Nicholsen et al., Trends Pharmaco. Sci., 1991, 12:19. The PDE6 enzyme assay was prepared according to Baehr et al., J. Biol. Chem., 1979, 254:11669 and Gillespie et al., Mol. Pharm., 1989, 36: 773. The PDE7 enzyme assay was prepared according to Bloom and Beavo. Proc. Natl. Acad. Sci. USA, 1996, 93:14188-92.

[2] = system: Aspartate Aminotransferase; assay: AST levels in RA-002 (rheumatoid arthritis); assay type: in vivo, human; conditions: for AST High to Normal, percent of patients / AST Net Benefit / AST Normal to High, percent of patients: end of treatment (week 16); for AST High, % of patients / AST Low, % of patients / AST Normal, % of patients: Week 16
Description: The improvement in mild baseline liver function test abnormalities has been observed with apremilast daily use without any prescribed changes in physical activity, social or dietary habits. During the course of the study, there was observed a higher proportion of subjects in the 30 mg BID apremilast treatment group with normal LFTs at subsequent placebo-controlled study visits at week 16. See Tables 17 to 24 from RA-002 studies.

[3] = system: Alanine Aminotransferase; assay: ALT levels in PALACE 1, 2, and 3 clinical studies; assay type: in vivo, human
Description: Apremilast was studied in Phase 3 trials in both psoriatic arthritis and psoriasis patient populations and a Phase 2 trial in rheumatoid arthritis patients on background methotrexate. […] The improvement in mild baseline liver function test abnormalities has been observed with apremilast daily use without any prescribed changes in physical activity, social or dietary habits. The majority of the patient populations in both the psoriatic arthritis and psoriasis studies were overweight with the mean BMI for subjects greater than or equal to 30, more than half were consuming alcoholic beverages regularly, approximately 60% were taking methotrexate at an average dose of […], and 70% were using non-steroidal anti-inflammatory drugs (NSAIDs). […] During the course of the study, there was observed a higher proportion of subjects in the apremilast treatment groups (both 20 mg BID and 30 mg BID) with normal LFTs (i.e. normal levels of ALT and AST) at subsequent placebo-controlled study visits at week 4, week 16, and week 24 (See Tables 1 to 10 from PALACE 1, 2, and 3 studies).

[4] = system: PDE6; assay: PDE6 enzyme assay; assay type: biochemical; conditions: at 10 μM
Description: as §1

[5] = system: Aspartate Aminotransferase; assay: AST levels in PSOR-008 and PSOR-009 (plaque psoriasis); assay type: in vivo, human; conditions: for AST High, % of patients / AST Low, % of patients / AST Normal, % of patients: Week 16, 30 mg BID
Description: Apremilast was studied in Phase 3 trials in patients with moderate to severe plaque psoriasis. […] The improvement in mild baseline liver function test abnormalities has been observed with apremilast daily use without any prescribed changes in physical activity, social or dietary habits. During the course of the study, there was observed a higher proportion of subjects in the apremilast treatment group (30 mg BID) with normal LFTs (i.e. normal levels of ALT and AST) at subsequent placebo-controlled study visits at week 16. See Tables 11 to 16 from PSOR-008 and PSOR-009 studies.

[6] = Baseline High, Week 24, 20 mg BID
[7] = Baseline High, Week 24, 30 mg BID
[8] = Baseline Normal, Week 24, 20 mg BID
[9] = Baseline Normal, Week 24, 30 mg BID
[10] = Baseline Total, Week 24, 20 mg BID
[11] = Baseline Total, Week 24, 30 mg BID
[12] = 30 BID, end of treatment (week 16)

CCOc1cc([C@@H](CS(C)(=O)=O)N2C(=O)c3cccc(NC(C)=O)c3C2=O)ccc1OC [Apremilast, (+)-2-[1-(3-ethoxy-4-methoxyphenyl)-2-methylsulfonylethyl]-4-acetylaminoisoindoline-1,3-dione]
% inhibition PDE1 [1]: 23%
AST High to Normal, percent of patients ([2]; 20 BID): 50.0%
AST Net Benefit ([2]; 20 BID): 33.3%
AST Normal to High, percent of patients ([2]; 20 BID): 3.0%
AST High to Normal, percent of patients ([2]; 30 BID): 100.0%
AST Net Benefit ([2]; 30 BID): 50.0%
AST Normal to High, percent of patients ([2]; 30 BID): 4.7%
AST High to Normal, Difference between Placebo and APR 30 BID ([2]; 30 BID, week 16): 50%
AST Net Benefit, Difference between Placebo and APR 30 BID ([2]; 30 BID, week 16): 16.7%
AST Normal to High, Difference between Placebo and APR 30 BID ([2]; 30 BID, week 16): 1.7%
AST High to Normal, Difference between Placebo and APR 30 BID ([2]; 30 BID, week 16, listed as APR): 50.0%
AST High, % of patients ([2]; Baseline High, 20 mg BID): 50.0%
AST Low, % of patients ([2]; Baseline High, 20 mg BID): 0.0%
AST Normal, % of patients ([2]; Baseline High, 20 mg BID): 50.0%
AST High, % of patients ([2]; Baseline High, 30 mg BID): 0.0%
AST Low, % of patients ([2]; Baseline High, 30 mg BID): 0.0%
AST Normal, % of patients ([2]; Baseline High, 30 mg BID): 100.0%
AST High, % of patients ([2]; Baseline Normal, 20 mg BID): 3.0%
AST Low, % of patients ([2]; Baseline Normal, 20 mg BID): 0.0%
AST Normal, % of patients ([2]; Baseline Normal, 20 mg BID): 97.0%
AST High, % of patients ([2]; Baseline Normal, 30 mg BID): 4.7%
AST Low, % of patients ([2]; Baseline Normal, 30 mg BID): 0.0%
AST Normal, % of patients ([2]; Baseline Normal, 30 mg BID): 95.3%
AST High, % of patients ([2]; Baseline Total, 20 mg BID): 5.7%
AST Low, % of patients ([2]; Baseline Total, 20 mg BID): 0.0%
AST Normal, % of patients ([2]; Baseline Total, 20 mg BID): 94.3%
AST High, % of patients ([2]; Baseline Total, 30 mg BID): 4.5%
AST Low, % of patients ([2]; Baseline Total, 30 mg BID): 0.0%
AST Normal, % of patients ([2]; Baseline Total, 30 mg BID): 95.5%
ALT High to Normal, percent of patients ([3]; 20 BID, end of treatment): 55.3%
ALT Net Benefit ([3]; 20 BID, end of treatment): 40.6%
ALT Normal to High, percent of patients ([3]; 20 BID, end of treatment): 4.5%
ALT High to Normal, Difference between Placebo and APR 30 BID ([3]; 30 BID, end of treatment): 44.4%
ALT High to Normal, percent of patients ([3]; 30 BID, end of treatment): 74.4%
ALT Net Benefit ([3]; 30 BID, end of treatment): 51.8%
ALT Net Benefit, Difference between Placebo and APR 30 BID ([3]; 30 BID, end of treatment): 36.8%
ALT Normal to High, Difference between Placebo and APR 30 BID ([3]; 30 BID, end of treatment): −2.8%
ALT Normal to High, percent of patients ([3]; 30 BID, end of treatment): 4.4%
ALT High, % of patients [3, 6]: 44.7%
ALT Low, % of patients [3, 6]: 0.0%
ALT Normal, % of patients [3, 6]: 55.3%
ALT High, % of patients [3, 7]: 25.6%
ALT Low, % of patients [3, 7]: 0.0%
ALT Normal, % of patients [3, 7]: 74.4%
ALT High, % of patients [3, 8]: 4.5%
ALT Low, % of patients [3, 8]: 0.0%
ALT Normal, % of patients [3, 8]: 95.5%
ALT High, % of patients [3, 9]: 4.4%
ALT Low, % of patients [3, 9]: 0.0%
ALT Normal, % of patients [3, 9]: 95.6%
ALT High, % of patients [3, 10]: 8.9%
ALT Low, % of patients [3, 10]: 0.0%
ALT Normal, % of patients [3, 10]: 91.1%
ALT High, % of patients [3, 11]: 6.3%
ALT Low, % of patients [3, 11]: 0.0%
ALT Normal, % of patients [3, 11]: 93.7%
Baseline High ALT: High % ([3]; Week 4, 20 mg BID): 54.2%
Baseline High ALT: Normal % ([3]; Week 4, 20 mg BID): 45.8%
Baseline High ALT: Normal % difference from Placebo ([3]; Week 4, 20 mg BID): 8.7%
Baseline High ALT: High % ([3]; Week 4, 30 mg BID): 41.1%
Baseline High ALT: Normal % ([3]; Week 4, 30 mg BID): 58.9%
Baseline High ALT: Normal % difference from Placebo ([3]; Week 4, 30 mg BID): 21.8%
Baseline High ALT: High % ([3]; Week 16, 20 mg BID): 36.8%
Baseline High ALT: Normal % ([3]; Week 16, 20 mg BID): 63.2%
Baseline High ALT: Normal % difference from Placebo ([3]; Week 16, 20 mg BID): 12.4%
Baseline High ALT: High % ([3]; Week 16, 30 mg BID): 32.7%
Baseline High ALT: Normal % ([3]; Week 16, 30 mg BID): 67.3%
Baseline High ALT: Normal % difference from Placebo ([3]; Week 16, 30 mg BID): 16.5%
Baseline High ALT: High % ([3]; Week 24, 20 mg BID): 45.1%
Baseline High ALT: Normal % ([3]; Week 24, 20 mg BID): 54.9%
Baseline High ALT: Normal % difference from Placebo ([3]; Week 24, 20 mg BID): 14.9%
Baseline High ALT: High % ([3]; Week 24, 30 mg BID): 23.8%
Baseline High ALT: Normal % ([3]; Week 24, 30 mg BID): 76.2%
Baseline High ALT: Normal % difference from Placebo ([3]; Week 24, 30 mg BID): 36.2%
% inhibition PDE6 [4]: −6%
AST High to Normal, percent of patients [5, 12]: 60.3%
AST Net Benefit [5, 12]: 46.3%
AST Normal to High, percent of patients [5, 12]: 2.8%
AST High to Normal, Difference (APR 30 BID vs Placebo) ([5]; 30 BID, week 16): 17.9%
AST Net Benefit, Difference (APR 30 BID vs Placebo) ([5]; 30 BID, week 16): 12.2%
AST Normal to High, Difference (APR 30 BID vs Placebo) ([5]; 30 BID, week 16): 0.3%
AST High to Normal, Difference (APR 30 BID vs Placebo) ([5]; 30 BID, week 16, listed as APR): 17.9%
AST High, % of patients ([5]; Baseline High): 39.7%
AST Low, % of patients ([5]; Baseline High): 0.0%
AST Normal, % of patients ([5]; Baseline High): 60.3%
AST High, % of patients ([5]; Baseline Normal): 2.8%
AST Low, % of patients ([5]; Baseline Normal): 0.0%
AST Normal, % of patients ([5]; Baseline Normal): 97.2%
AST High, % of patients ([5]; Baseline Total): 5.9%
AST Low, % of patients ([5]; Baseline Total): 0.0%
AST Normal, % of patients ([5]; Baseline Total): 94.1%
